Data taken from paper PMC12668308, “A Novel Antimalarial Agent that Inhibits Protein Synthesis in Plasmodium falciparum” (Angewandte Chemie (International Ed. in English), 2025).

How the values were obtained:
Dd2b2^pfmdr1 G182S = format: cell-based, Plasmodium falciparum; settings: Dd2b2^pfmdr1 G182S vs Dd2b2^WT
Method: ^[a] 72-h [^3H] hypoxanthhine incorporation assay; Data is expressed as mean±s.d. The assay was performed in three independent biological experiments, each in biological duplicates
P. falciparum asexual blood stage parasites were cultured in human red blood cells (RBC, Blutspende SRK, Zurich) at a hematocrit of 5% in RPMI 1640 medium. The RPMI 1640 medium (ThermoFisher Scientific #51800−043) was supplemented with the following: 24 mM NaHCO3 (pH 7.3, Sigma-Aldrich #31437−500G-R), 25 mM Hepes (Sigma-Aldrich #H4034−500G), 0.36 mM hypoxanthine (Sigma-Aldrich # H9377−25G), 100 µg mL^-1 neomycin (Sigma-Aldrich #N6386−100G) and 0.5% Albumax II (Thermo Fisher #11021−045). Additionally, 2 mM choline chloride (279 mg/L, Sigma-Aldrich #C7527−100G) was added to the culture to block the induction of sexual commitment as described. ^[31^] The RPMI 1640 medium and components were dissolved in water (Milli-Q purified), stirred for at least 3 h, and then sterile filtered (0.22 μm pore size) with a bottle top filter (Corning # 431118). Parasite cultures were maintained in an atmosphere of 3% O2, 4% CO2, and 93% N2 in air-tight chambers at 37 °C. The [^3H]-hypoxanthine incorporation assay was used to test compound activity in the specific parasite lines as described.^[32^] Briefly, compounds were dissolved in DMSO (10 mM) and diluted in a hypoxanthine-free culture medium. A limiting dilution was performed over a 64-fold range (6-step twofold dilution) in a 96-well plate in duplicates. For every starting concentration, a limiting dilution was performed over a 64-fold range (6-step twofold dilution) in a 96-well plate in two biological duplicates. Parasites were added at 100 µL to each well containing the compound to obtain a final parasitemia of 0.3% and haematocrit of 1.25%. The plates were incubated for 48 h before 0.25 µCi of [^3H]-hypoxanthine was added per well for an additional 24 h. Parasites were harvested on a glass-fiber filter with a Microbeta FilterMate cell harvester (Perkin Elmer, Waltham, USA) and radioactivity was counted using a MicroBeta2 liquid scintillation counter (Perkin Elmer, Waltham, US). […] The fifty percent inhibitory concentration (IC50) was calculated by using nonlinear, four parameter (variable slope) curve fitting as described ^[33^] after importing into GraphPad Prism (version 8.3.0).

[1] = tested on: Pre-mRNA branch site protein p14 (Fragment) (W7JRR7); assay: iSPP profiling, P. falciparum lysate; format: binding, Plasmodium falciparum; settings: 100 µM compound 34
Method: (§1) P. falciparum NF54 lysates were extracted as described in ^[26^] . The parasite asynchronous culture was extracted once 3-5% parasitemia was reached. Saponin lysis was done as described in 2.2.10. Once the parasite pellet was obtained, 2.5 volumes of ice-cold lysis buffer (50 mM Tris/HCl pH 7.5 (Avantor), 5% glycerol (Sigma-Aldrich), 150 mM NaCl (Carl Roth), 1.5 mM MgCl2 (Sigma-Aldrich), 1 mM DTT (Carl Roth), 0.8% IGEPAL CA-630 (Sigma-Aldrich), 1X Halt Protease and Phosphatase Inhibitor-Cocktails EDTA-free (Thermo Fisher Scientific)) was added to the parasite pellet. The lysate solution was subjected to three cycles of flash freeze-thaw with liquid nitrogen and ddH2O at RT. The lysates were centrifuged at 20,000 g for 20 minutes at 4 °C. The soluble protein fraction (supernatant) was collected and the protein content was quantified using the BCA assay (Pierce™ BCA Protein Assay Kit, Thermo Fisher Scientific). The lysate was stored at -80 °C until further use.
(§2) The P. falciparum lysate was thawed on ice and diluted to 0.8 mg/mL. The lysate was aliquoted, and each aliquot was incubated with either a vehicle control (DMSO), 34 (dissolved in DMSO), or varying concentrations of 31 (dissolved in DMSO) at 0.01 µM, 0.1 µM, 10 µM, 50 µM, and 100 µM. Subsequently, the samples were incubated at room temperature for 30 minutes using a rotating mixer. After distribution into a 96-well plate, the samples were treated with increasing concentrations of A.E.A. (v/v) ranging from 14% to 28% (14, 16, 18, 20, 22, 24, 26, and 28%). Following a 20-minute incubation at 37°C with shaking at 750 rpm, the samples were centrifuged at 4400 g for 35 minutes to remove precipitated proteins. The soluble fractions were then pooled in equal volumes into a single sample using the Bravo Automated Liquid Handling Platform. The pooled samples were subsequently prepared for LC-MS/MS analysis.
(§3) The raw LFQ-DIA intensity values of biological replicates across all conditions were normalized to the median abundance using Excel. The normalized values were then log2 transformed in Perseus (v2.0.10.0).^[58^] Missing values were imputed from a normal distribution (width 0.3, down shift 1.5), and p-values were obtained using a two-sample t-test over replicates with a permutation-based false discovery rate correction (FDR 0.05). Volcano plots were generated in RStudio using the EnhancedVolcano package (v. 1.20.0), ^[59^] plotting proteins by statistical significance (y-axis: –Log10 p-value) versus the magnitude of change (x-axis: log2 fold change of protein intensities for each compound condition relative to the vehicle control). The heatmap was generated in Perseus (v2.0.10.0). Dose-dependent curves were generated using normalized protein intensity values, expressed as a ratio to the vehicle control. Plots were created in GraphPad Prism (v8.3.0) using a nonlinear regression model.

[2] = tested on: WD repeat-containing protein 82 (W7K1H5); assay: iSPP profiling, P. falciparum lysate; format: binding, Plasmodium falciparum; settings: 100 µM compound 34
Method: as §1, §2, §3

Stevor (W7K9U2) = assay: iSPP profiling, P. falciparum lysate; format: binding, Plasmodium falciparum; settings: 100 µM compound 34
Method: as §1, §2, §3

[3] = tested on: Uncharacterized protein (W7KMZ2); assay: iSPP profiling, P. falciparum lysate; format: binding, Plasmodium falciparum; settings: 100 µM compound 34
Method: as §1, §2, §3

[4] = tested on: RRM domain-containing protein (W7KAG3); assay: iSPP profiling, P. falciparum lysate; format: binding, Plasmodium falciparum; settings: 100 µM compound 34
Method: as §1, §2, §3

[5] = tested on: Protein RFT1 homolog (W7JM37); assay: iSPP profiling, P. falciparum lysate; format: binding, Plasmodium falciparum; settings: 100 µM compound 34
Method: as §1, §2, §3

[6] = tested on: Uncharacterized protein (W7KDE4); assay: iSPP profiling, P. falciparum lysate; format: binding, Plasmodium falciparum; settings: 100 µM compound 34
Method: as §1, §2, §3

[7] = tested on: DNA repair and recombination protein RAD54 (W7K6H8); assay: iSPP profiling, P. falciparum lysate; format: binding, Plasmodium falciparum; settings: 100 µM compound 34
Method: as §1, §2, §3

Row | Compound | IC50 fold shift relative to parental clone (Dd2b2^pfmdr1 G182S) | log2FC [1] | log2FC [2] | log2FC (Stevor (W7K9U2)) | log2FC [3] | log2FC [4] | log2FC [5] | log2FC [6] | log2FC [7]
1 | CN1CCN(Cc2ccc(O)c(NC(=O)c3cccc(Oc4cc(C(F)(F)F)ccn4)c3)c2)CC1 [Compound 31, N-(2-hydroxy-5-((4-methylpiperazin-1-yl)methyl)phenyl)-3-((4-(trifluoromethyl)pyridin-2-yl)oxy)benzamide] | 35.7 |  |  |  |  |  |  |  | 
2 | O=C(Nc1cc(CN2CCOCC2)ccc1F)c1cccc(Oc2cc(C(F)(F)F)ccn2)c1 [Compound 34, N-(2-Fluoro-5-(morpholinomethyl)phenyl)-3-((4-(trifluoromethyl)pyridin-2-yl)oxy)benzamide] |  | 0.3601 | -0.6516 | 0.3642 | 0.3762 | 0.4449 | -0.6689 | 0.5097 | -0.7564
